ChEMBL document CHEMBL1201862, “PubChem BioAssay data set” (2004)
“And” between values parts separate entries of the source, which are not always exact repeats. Equal entries are not always repeated.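 48-hour exposure; five concentrations; linearly interpolated endpoints. At the GI50, growth is halved.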 The source made the active and inactive calls. Cut-off read from the data, not from the text of the source: active = GI50 up to about 1.1 µM and inactive = higher.

Experiments:
Assay in all cases: growth of human tumour cells (NCI), 48 h
SK-OV-3 = system: SK-OV-3
HOP-62 = system: HOP-62
UACC-62 = system: UACC-62
SW-620 = system: SW-620
DU-145 = system: DU-145
NCI-H460 = system: NCI-H460
786-0 = system: 786-0
TK-10 = system: TK-10
NCI-H226 = system: NCI-H226
A498 = system: A498
OVCAR-8 = system: OVCAR-8
SNB-75 = system: SNB-75
RXF 393 = system: RXF 393
COLO 205 = system: COLO 205
OVCAR-3 = system: OVCAR-3
U-251 = system: U-251
K562 = system: K562
LOX IMVI = system: LOX IMVI
RPMI-8226 = system: RPMI-8226
SNB-19 = system: SNB-19

Measured: GI50

CN(C)c1ccc(C2CC(c3ccc4ccccc4c3O)=NN2c2ccc([N+](=O)[O-])cc2[N+](=O)[O-])cc1 (centres undefined)
inactive: SK-OV-3 > 100 µM | HOP-62 75.5 µM | UACC-62 14.3 µM | SW-620 36.3 µM | DU-145 64.9 µM | NCI-H460 32.3 µM | 786-0 > 100 µM | TK-10 > 100 µM | NCI-H226 89.5 µM | A498 68.4 µM | OVCAR-8 56 µM | SNB-75 > 100 µM | RXF 393 41.2 µM | COLO 205 38.7 µM | OVCAR-3 22 µM | U-251 41.9 µM

CC(=O)Oc1ccc(/C=C/C(=O)NCCOC(=O)/C=C/c2ccc(OC(C)=O)c(OC(C)=O)c2)cc1OC(C)=O
inactive: SK-OV-3 42 µM | HOP-62 21.9 µM | UACC-62 18.7 µM | SW-620 19.3 µM | K562 32.4 µM | DU-145 20.6 µM | NCI-H460 32 µM | LOX IMVI 13.9 µM | RPMI-8226 26.2 µM | 786-0 19.5 µM | TK-10 23 µM | A498 31.7 µM | OVCAR-8 25.2 µM | SNB-75 20.1 µM | RXF 393 11.7 µM | COLO 205 42.5 µM | OVCAR-3 16.1 µM | SNB-19 21.2 µM | U-251 28.4 µM

C=C(C(=O)O)[C@@H]1C[C@@H]2O[C@H]1[C@@H](O)[C@@H](C)CCCC(C)=CCC[C@@]2(C)O
inactive: SK-OV-3 > 100 µM | HOP-62 > 100 µM | UACC-62 > 100 µM and > 90.4 µM | SW-620 39.8 µM and 58.1 µM | DU-145 > 100 µM | NCI-H460 > 100 µM | LOX IMVI 41.3 µM and > 47.2 µM | 786-0 56.6 µM and > 69.5 µM | TK-10 > 100 µM and > 52.1 µM | NCI-H226 > 100 µM | A498 > 100 µM | OVCAR-8 > 100 µM | SNB-75 > 100 µM | RXF 393 > 100 µM and > 89.1 µM | COLO 205 > 100 µM and 72.6 µM | OVCAR-3 > 100 µM and > 88.7 µM | SNB-19 > 100 µM | U-251 > 100 µM and 97.3 µM

Cc1cc(OCc2nnc3n2N=C(c2cc(F)c(Cl)cc2Cl)/C(=C/c2ccc(Cl)cc2)S3)ccc1Cl
inactive: SK-OV-3 50.9 µM | HOP-62 43.1 µM | SW-620 17.4 µM | K562 8.38 µM | DU-145 17.4 µM | NCI-H460 25.9 µM | LOX IMVI 21.9 µM | RPMI-8226 11.7 µM | 786-0 28.1 µM | TK-10 32.6 µM | NCI-H226 46 µM | A498 24.2 µM | OVCAR-8 18.8 µM | RXF 393 17 µM | OVCAR-3 30.5 µM | U-251 18.3 µM

CC(C)(C)OC(=O)Nc1nnc(S(N)(=O)=O)s1
inactive: SK-OV-3 > 100 µM | HOP-62 > 100 µM | UACC-62 > 100 µM | SW-620 > 100 µM | K562 > 100 µM | DU-145 > 100 µM | NCI-H460 > 100 µM | LOX IMVI > 100 µM | RPMI-8226 > 100 µM | 786-0 > 100 µM | TK-10 > 100 µM | NCI-H226 > 100 µM | A498 > 100 µM | OVCAR-8 > 100 µM | RXF 393 > 100 µM | COLO 205 > 100 µM | OVCAR-3 > 100 µM | SNB-19 > 100 µM | U-251 > 100 µM

O=C(CC(C(=O)c1cccs1)c1ccsc1)c1ccsc1 (centres undefined)
inactive: SK-OV-3 32.1 µM | HOP-62 56.9 µM | UACC-62 14 µM | SW-620 29.7 µM | K562 27.4 µM | DU-145 44.8 µM | NCI-H460 23 µM | LOX IMVI 22.8 µM | RPMI-8226 27.1 µM | 786-0 46.2 µM | TK-10 > 100 µM | A498 11.4 µM | OVCAR-8 39.4 µM | SNB-75 25.6 µM | RXF 393 25.6 µM | COLO 205 18.2 µM | OVCAR-3 40.2 µM | SNB-19 50.6 µM | U-251 46.3 µM

CC(=O)OCC1OC(N2C(=O)CC(N)=Nc3ccccc32)C(OC(C)=O)C(OC(C)=O)C1OC(C)=O (centres undefined)
inactive: SK-OV-3 > 100 µM | HOP-62 81.7 µM | UACC-62 34.6 µM | SW-620 87.5 µM | K562 32.6 µM | DU-145 63.4 µM | NCI-H460 55.5 µM | LOX IMVI 37.5 µM | RPMI-8226 14.4 µM | 786-0 > 100 µM | TK-10 75 µM | A498 62.8 µM | OVCAR-8 32.4 µM | SNB-75 29.8 µM | RXF 393 23.1 µM | COLO 205 15.1 µM | OVCAR-3 52.6 µM | SNB-19 > 100 µM | U-251 59.7 µM

O=C1Nc2nnc(S)n2NC12c1ccccc1-c1ccccc12
inactive: SK-OV-3 > 100 µM | HOP-62 > 100 µM | UACC-62 22.4 µM | SW-620 > 100 µM | DU-145 > 100 µM | NCI-H460 39.4 µM | LOX IMVI 58.9 µM | 786-0 > 100 µM | TK-10 > 100 µM | NCI-H226 > 100 µM | A498 > 100 µM | OVCAR-8 > 100 µM | SNB-75 > 100 µM | RXF 393 > 100 µM | COLO 205 > 100 µM | OVCAR-3 > 100 µM | SNB-19 > 100 µM | U-251 > 100 µM
